Data published in ChEMBL document CHEMBL1201862, “PubChem BioAssay data set” (2004).
Activity calls are given as the source filed them.

Legend:
[1] = target: Glutathione-S-transferase (Schistosoma japonicum, UniProt Q26513); experiment: biotin-GST/anti-GST TR-FRET signal inhibitors, dose response, artefact control for Vif-APOBEC3G degradation inhibitor project, biochemical (AID 1117362); format: functional
Genome polyprotein = Genome polyprotein (dengue virus type 2, UniProt P29990); experiment: Dengue-2 NS5 methyltransferase inhibitors, primary screen, biochemical, confirmation dose response (AID 588689); format: functional
[2] = target: T1, Oxysterols receptor LXR-beta (Homo sapiens, UniProt P55055); format: functional, cell-based;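 note: agonist activity at LXR measured by a cell-based luminescence readout across a dose range, run as a counterscreen for daf-12 agonists; HEK293 cells with Gal4-LXR fusion and GAL4-driven luciferase reporter; potency for activation of Gal4-LXR reporter so compounds are agonists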
T1 sequence (P55055 whole entry): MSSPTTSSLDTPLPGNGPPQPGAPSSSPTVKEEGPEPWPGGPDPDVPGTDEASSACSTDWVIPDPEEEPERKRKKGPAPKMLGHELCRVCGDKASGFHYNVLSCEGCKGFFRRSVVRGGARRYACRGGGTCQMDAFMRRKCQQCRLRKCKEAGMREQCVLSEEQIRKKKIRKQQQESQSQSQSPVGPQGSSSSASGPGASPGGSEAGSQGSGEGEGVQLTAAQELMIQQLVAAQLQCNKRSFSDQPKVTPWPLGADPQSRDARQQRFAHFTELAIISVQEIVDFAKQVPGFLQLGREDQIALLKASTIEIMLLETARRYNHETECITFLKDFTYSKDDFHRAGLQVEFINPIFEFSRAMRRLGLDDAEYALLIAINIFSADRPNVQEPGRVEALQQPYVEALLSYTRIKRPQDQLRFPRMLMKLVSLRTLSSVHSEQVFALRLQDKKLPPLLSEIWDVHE

[3] = Luminescence Cell-Based Dose Retest to Confirm Inhibitors of Cancer Stem Cells. [Related pubchem assays (depositor defined):AID2717, AID2721]; format: functional; details: Homo sapiens
[4] = inhibitors of intracellular T. cruzi replication, confirmation, NIH3T3 host cells, beta-gal luminescence (AID 2044); format: functional, cell-based;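 note: intracellular parasites grown in NIH/3T3 mouse fibroblasts as host cells; luminescent beta-galactosidase reporter signal from transgenic T. cruzi replicating inside host cells; inhibitors lower the luminescence signal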
Fatty acid synthase [5] = target: T2, Fatty acid synthase (Homo sapiens, UniProt P49327); experiment: FAS thioesterase domain inhibitors, dose response, biochemical, endpoint fluorescence intensity, uHTS hits (AID 624327); format: functional;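 note: fluorescence from hydrolysis of an O-methyl fluorescein acyl ester substrate by the enzyme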
[6] = cytotoxicity toward NIH3T3 fibroblasts, dose response, counter-screen, cell-based, ATP luminescence, mouse fibroblasts (AID 2010); format: functional;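 note: cells exposed to compound for about 90 hours before reading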
[7] = HEK293T cytotoxicity, dose response, cytotoxicity control for miR-122 modulator project, cell-based, inhibitor set, cherry-pick, set 2 (AID 720697); format: functional
Fatty acid synthase [8] = target: T2, Fatty acid synthase; experiment: FAS thioesterase domain inhibitors, dose response, biochemical, kinetic fluorescence intensity (AID 624326); format: functional;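 note: rate of fluorescence rise from hydrolysis of a fluorogenic O-methyl fluorescein ester substrate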
[9] = HEK293T cytotoxicity, dose response, cytotoxicity control for miR-122 modulator project, cell-based, activator set, cherry-pick (AID 720690); format: functional;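 note: HEK293T human cells scored for general mammalian cytotoxicity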
[10] = HepG2 cell cytotoxicity, dose response, cytotoxicity control, cherry-picked samples (AID 1159577); format: functional, cell-based
[11] = P. falciparum Dd2 growth inhibitors, dose response, SYBR Green, cherry-picked samples (AID 1159567); format: functional, cell-based
[12] = HepG2 cell cytotoxicity, dose response, cytotoxicity control, plate reader, cherry-pick, antagonist series (AID 743416); format: functional, cell-based
[13] = miR-122 activators in hepatoma reporter cells, dose response, cell-based, Huh7 psiCHECK-miR122, Renilla luciferase, cherry-picked (AID 651956); format: functional;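 note: huh7 hepatoma cells stably carrying a psiCHECK-2 miR-122 sensor plasmid; renilla luciferase signal reporting endogenous miR-122 activity after 48 h compound exposure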
[14] = MC4R antagonists, dose response, counter-screen for LGR2 antagonist project, cell-based, plate reader, cherry pick (AID 743444); format: functional;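 note: transfected HEK 293 cells stimulated with alpha-MSH peptide; potency of inhibitors of the alpha-MSH evoked signal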
[15] = HEK293 cell cytotoxicity, dose response, cytotoxicity control, plate reader, cherry-picked samples (AID 743446); format: functional, cell-based
[16] = A549 cell cytotoxicity, dose response, cytotoxicity control, plate reader, cherry-pick, antagonist series (AID 743412); format: functional, cell-based
[17] = LGR2 antagonists, dose response, cell-based, HEK293, CRE-luciferase reporter, cherry pick, set 2 (AID 743343); format: functional;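 note: transfected cells were stimulated with diluted bursicon conditioned medium after compound addition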
[18] = THP-1 cell cytotoxicity, dose response, cytotoxicity control for non-replicating M. tuberculosis project (AID 489025); format: functional
[19] = target: T3, Heat shock factor protein 1 (Mus musculus, UniProt P38532); experiment: inhibition of MG132-induced HSE-luciferase signal, confirmation, cell-based, NIH3T3, luminescence, dose retest (AID 2382); format: functional;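 note: NIH3T3 fibroblasts with HSF1-driven luciferase reporter stressed by proteasome inhibitor MG132; luminescence from HSF1-driven luciferase expression after 8 hours of MG132 stress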
T3 sequence (P38532 whole entry): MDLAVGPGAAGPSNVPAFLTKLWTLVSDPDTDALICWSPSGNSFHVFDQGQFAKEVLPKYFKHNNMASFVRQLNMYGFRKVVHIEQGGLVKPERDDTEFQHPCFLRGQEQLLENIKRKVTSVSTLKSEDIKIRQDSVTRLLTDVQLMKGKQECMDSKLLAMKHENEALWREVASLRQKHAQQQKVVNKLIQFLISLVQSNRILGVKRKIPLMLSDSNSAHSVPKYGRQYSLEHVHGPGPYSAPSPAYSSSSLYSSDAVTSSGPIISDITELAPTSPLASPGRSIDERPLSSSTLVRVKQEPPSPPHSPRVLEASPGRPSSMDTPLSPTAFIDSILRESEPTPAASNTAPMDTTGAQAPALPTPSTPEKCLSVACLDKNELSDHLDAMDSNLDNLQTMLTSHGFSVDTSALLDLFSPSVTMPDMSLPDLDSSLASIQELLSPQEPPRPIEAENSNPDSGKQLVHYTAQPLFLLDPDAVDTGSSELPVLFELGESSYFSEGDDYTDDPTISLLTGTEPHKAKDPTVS

[20] = Vero cell cytotoxicity, dose response, cytotoxicity control for Vif-APOBEC3G degradation inhibitor project, Vero cells (AID 1117358); format: functional; details: Human immunodeficiency virus 1, Vero
Protein skinhead-1 = target: T4, Protein skinhead-1 (Caenorhabditis elegans, UniProt P34707); format: functional
T4 sequence (P34707 whole entry): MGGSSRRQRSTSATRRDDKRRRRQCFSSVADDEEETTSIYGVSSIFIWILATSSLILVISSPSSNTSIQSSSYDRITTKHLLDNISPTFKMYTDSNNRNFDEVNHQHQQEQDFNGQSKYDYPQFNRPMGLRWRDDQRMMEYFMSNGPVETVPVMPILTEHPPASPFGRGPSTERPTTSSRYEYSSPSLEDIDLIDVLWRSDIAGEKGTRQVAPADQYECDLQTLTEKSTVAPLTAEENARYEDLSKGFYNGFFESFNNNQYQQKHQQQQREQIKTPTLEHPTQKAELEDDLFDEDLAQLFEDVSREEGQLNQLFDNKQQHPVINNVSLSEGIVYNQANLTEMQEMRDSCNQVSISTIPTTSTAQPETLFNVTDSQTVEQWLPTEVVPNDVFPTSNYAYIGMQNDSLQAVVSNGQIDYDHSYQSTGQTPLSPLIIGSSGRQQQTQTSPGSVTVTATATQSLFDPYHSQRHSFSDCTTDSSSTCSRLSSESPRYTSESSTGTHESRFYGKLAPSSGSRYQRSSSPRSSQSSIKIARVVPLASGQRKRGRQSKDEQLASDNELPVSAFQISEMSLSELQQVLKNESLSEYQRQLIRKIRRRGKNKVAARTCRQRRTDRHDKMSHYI

[21] = Vero E6 cell cytotoxicity, dose response, cytotoxicity control for non-replicating M. tuberculosis project, secondary assay (AID 492998); format: functional, VeroE6; details: Vero C1008

T2 sequence (P49327 whole entry, the tested form may be a part): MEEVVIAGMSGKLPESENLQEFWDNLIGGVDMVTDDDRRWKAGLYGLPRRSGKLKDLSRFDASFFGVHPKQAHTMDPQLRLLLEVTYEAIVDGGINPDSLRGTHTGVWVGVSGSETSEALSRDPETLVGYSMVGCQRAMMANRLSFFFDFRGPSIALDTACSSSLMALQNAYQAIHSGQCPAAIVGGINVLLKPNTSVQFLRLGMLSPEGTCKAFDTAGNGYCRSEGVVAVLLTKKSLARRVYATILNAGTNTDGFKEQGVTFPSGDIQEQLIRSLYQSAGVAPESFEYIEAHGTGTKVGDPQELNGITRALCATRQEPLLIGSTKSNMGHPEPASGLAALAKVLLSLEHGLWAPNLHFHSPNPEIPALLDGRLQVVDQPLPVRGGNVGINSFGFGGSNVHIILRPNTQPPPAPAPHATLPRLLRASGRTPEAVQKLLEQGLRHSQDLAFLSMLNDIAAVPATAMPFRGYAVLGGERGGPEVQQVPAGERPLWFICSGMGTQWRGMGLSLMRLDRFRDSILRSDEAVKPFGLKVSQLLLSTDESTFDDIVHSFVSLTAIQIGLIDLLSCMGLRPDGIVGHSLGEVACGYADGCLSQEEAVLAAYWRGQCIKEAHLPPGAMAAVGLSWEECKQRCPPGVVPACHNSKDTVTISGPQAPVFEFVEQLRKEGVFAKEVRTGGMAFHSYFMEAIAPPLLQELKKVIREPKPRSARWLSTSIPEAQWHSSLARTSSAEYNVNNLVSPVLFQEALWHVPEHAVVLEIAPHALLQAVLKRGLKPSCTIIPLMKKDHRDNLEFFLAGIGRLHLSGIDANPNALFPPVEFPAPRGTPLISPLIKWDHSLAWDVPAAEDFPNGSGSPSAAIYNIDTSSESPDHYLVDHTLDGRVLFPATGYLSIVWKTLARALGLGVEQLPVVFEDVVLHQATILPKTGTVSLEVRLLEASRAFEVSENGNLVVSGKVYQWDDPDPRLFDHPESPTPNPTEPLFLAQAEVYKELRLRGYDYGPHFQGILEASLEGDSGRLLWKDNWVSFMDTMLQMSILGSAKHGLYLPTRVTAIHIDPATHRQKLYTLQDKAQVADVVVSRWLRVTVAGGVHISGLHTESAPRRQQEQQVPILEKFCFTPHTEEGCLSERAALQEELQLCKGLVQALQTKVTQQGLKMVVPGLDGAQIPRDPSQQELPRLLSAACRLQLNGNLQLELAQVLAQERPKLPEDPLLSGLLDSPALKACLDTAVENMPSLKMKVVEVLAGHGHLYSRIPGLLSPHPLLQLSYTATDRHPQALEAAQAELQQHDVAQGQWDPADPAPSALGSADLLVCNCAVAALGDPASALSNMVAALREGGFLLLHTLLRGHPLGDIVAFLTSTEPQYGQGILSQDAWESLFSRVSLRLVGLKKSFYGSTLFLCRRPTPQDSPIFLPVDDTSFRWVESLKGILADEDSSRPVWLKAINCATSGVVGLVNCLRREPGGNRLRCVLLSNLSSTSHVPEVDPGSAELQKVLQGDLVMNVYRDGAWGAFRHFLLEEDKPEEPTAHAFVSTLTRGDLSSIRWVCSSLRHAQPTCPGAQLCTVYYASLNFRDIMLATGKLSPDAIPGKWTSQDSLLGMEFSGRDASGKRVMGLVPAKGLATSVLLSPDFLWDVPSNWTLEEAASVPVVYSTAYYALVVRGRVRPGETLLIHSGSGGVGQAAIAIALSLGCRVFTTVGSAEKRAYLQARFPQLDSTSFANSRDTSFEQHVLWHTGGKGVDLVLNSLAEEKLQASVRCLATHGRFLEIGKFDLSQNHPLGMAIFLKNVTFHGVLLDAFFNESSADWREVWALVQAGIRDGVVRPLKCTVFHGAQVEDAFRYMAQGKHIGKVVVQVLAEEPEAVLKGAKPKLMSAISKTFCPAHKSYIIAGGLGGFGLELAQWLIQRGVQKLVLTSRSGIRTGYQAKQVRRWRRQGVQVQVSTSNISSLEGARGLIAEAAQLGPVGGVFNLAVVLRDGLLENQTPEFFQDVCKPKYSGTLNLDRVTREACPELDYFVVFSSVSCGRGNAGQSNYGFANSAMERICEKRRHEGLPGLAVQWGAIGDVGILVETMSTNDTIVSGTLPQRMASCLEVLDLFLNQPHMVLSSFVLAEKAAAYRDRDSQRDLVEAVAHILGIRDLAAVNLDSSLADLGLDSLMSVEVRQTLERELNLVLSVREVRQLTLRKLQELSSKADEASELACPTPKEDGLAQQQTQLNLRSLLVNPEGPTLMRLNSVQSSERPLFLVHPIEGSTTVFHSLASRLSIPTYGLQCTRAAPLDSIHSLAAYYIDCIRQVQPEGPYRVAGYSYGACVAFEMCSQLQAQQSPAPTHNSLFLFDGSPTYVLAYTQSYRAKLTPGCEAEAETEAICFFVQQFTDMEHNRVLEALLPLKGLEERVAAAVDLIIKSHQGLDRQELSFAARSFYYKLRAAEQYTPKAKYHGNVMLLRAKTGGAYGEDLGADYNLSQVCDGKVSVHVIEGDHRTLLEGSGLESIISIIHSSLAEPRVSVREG
Glutathione-S-transferase, sequence (Q26513 whole entry): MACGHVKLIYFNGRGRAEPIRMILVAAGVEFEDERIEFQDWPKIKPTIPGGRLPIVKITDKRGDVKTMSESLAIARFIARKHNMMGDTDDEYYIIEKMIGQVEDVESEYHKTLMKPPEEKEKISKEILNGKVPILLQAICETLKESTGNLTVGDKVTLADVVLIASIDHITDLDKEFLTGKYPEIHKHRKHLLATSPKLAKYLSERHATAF
Genome polyprotein, sequence (P29990 2492-3391 limits assumed): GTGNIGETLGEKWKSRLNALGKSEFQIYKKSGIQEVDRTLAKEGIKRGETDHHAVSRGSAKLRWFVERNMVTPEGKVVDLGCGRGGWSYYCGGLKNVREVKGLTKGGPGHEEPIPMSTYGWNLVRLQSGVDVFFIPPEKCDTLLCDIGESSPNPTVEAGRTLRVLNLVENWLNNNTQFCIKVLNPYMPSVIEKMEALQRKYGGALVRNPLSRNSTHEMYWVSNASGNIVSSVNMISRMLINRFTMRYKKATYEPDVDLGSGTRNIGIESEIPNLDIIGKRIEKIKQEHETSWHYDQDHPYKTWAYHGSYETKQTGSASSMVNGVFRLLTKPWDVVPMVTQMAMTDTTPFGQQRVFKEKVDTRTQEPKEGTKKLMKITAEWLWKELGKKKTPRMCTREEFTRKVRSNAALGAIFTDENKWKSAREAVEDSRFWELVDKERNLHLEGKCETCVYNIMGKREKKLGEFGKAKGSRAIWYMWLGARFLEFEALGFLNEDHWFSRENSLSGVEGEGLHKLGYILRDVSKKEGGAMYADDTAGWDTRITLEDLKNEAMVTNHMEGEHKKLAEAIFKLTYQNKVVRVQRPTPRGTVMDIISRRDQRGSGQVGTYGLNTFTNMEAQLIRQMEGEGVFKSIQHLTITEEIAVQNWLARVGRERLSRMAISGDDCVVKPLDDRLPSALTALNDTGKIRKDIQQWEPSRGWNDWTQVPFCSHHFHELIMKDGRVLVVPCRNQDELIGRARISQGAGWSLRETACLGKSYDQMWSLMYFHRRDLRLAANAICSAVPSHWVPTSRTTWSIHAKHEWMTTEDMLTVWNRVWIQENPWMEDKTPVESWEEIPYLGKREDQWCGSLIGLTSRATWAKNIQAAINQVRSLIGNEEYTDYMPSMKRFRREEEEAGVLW

O=C1CC=C2C3CC4N(CCC45c4cc(O)c(O)cc4N1C25)CC3=CCBr (stereo not given)
IC50 [1]: 3.05 µM (active) | IC50 (Genome polyprotein): 31.5 µM (active)

COc1cccc(-c2nc3ccccc3s2)c1
EC50 [2]: > 67.5 µM (inactive)

CN(C)CCNc1nc2sc3c(c2c(=O)n1CCc1ccccc1)CCCCC3
AC50 [3]: 6.6 µM (active) | EC50 [4]: 0.125 µM (active) | IC50 (Fatty acid synthase [5]): 18.8 µM (active) | EC50 [6]: 30.9 µM (active) | AC50 [7]: 7.83 µM (active) | IC50 (Fatty acid synthase [8]): 19.3 µM (active) | AC50 [9]: 14.7 µM (active)

CCC(=O)N1CC(=O)N2[C@@H](CO)[C@H](c3ccc(C#CCc4ccccc4)cc3)[C@@H]2C1
AC50 [10]: 25.2 µM (active) | AC50 [11]: 11.4 µM (active)

C[C@H]1CN([C@@H](C)CO)S(=O)(=O)c2ccc(C#CC(C)(C)O)cc2O[C@@H]1CN(C)Cc1ccc(-c2ccccc2)cc1
AC50 [12]: 0.759 µM (active) | AC50 [13]: 7.8 µM (active) | AC50 [14]: 20.2 µM (active) | AC50 [15]: 1.95 µM (active) | AC50 [7]: 10.7 µM (active) | AC50 [16]: 0.778 µM (active) | AC50 [9]: 12.3 µM (active) | AC50 [17]: 29.6 µM (active)

CCN1C(C(=O)c2ccccc2)=C(O)c2ccccc2S1(=O)=O
CC50 [18]: 26.2 µM (active) | EC50 [19]: > 195 µM (not active) | CC50 [20]: 24.3 µM (active) | IC50 (Protein skinhead-1): > 100 µM (inactive) | CC50 [21]: 19.2 µM (active)
